Measured values published in patent publication USRE48711E1, “Apoptosis signal-regulating kinase inhibitors” (Gilead Sciences, Inc., priority 2009, dated 2021).

Target: ASK1 (Apoptosis Signal-Regulating Kinase 1) (Homo sapiens (Human), UniProt Q99683)
Assay: ASK1 (Apoptosis Signal-Regulating Kinase 1) TR-FRET Kinase Assay (Biochemical IC50)
Conditions: TR-FRET, biotin-MBP substrate, 20 min pre-incubation, ATP added as 300 μM solution

Chain of ASK1 (Apoptosis Signal-Regulating Kinase 1) (Q99683 649-946): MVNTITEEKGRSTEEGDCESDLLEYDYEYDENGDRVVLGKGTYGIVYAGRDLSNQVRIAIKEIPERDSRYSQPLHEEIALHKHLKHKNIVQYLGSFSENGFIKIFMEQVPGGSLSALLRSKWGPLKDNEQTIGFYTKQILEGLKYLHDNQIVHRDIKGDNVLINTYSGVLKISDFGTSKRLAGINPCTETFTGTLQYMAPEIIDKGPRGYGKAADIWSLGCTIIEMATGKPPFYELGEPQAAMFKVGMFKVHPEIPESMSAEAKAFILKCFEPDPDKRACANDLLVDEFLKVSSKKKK

| SMILES | IC50 |
| --- | --- |
| O=C(Nc1cccc(-c2nncn2C2CC2)n1)c1ccnc(-c2ccc(C3CC3)nc2)c1 [Example 260, 6′-cyclopropyl-N-(6-(4-cyclopropyl-4H-1,2,4-triazol-3-yl)pyridin-2-yl)-2,3′-bipyridine-4-carboxamide] | 30 nM |
| O=C(Nc1cccc(-c2nncn2C2CC2)c1)c1cccc(-c2ccc(C3CC3)nc2)n1 [Example 263, 6′-cyclopropyl-N-(3-(4-cyclopropyl-4H-1,2,4-triazol-3-yl)phenyl)-2,3′-bipyridine-6-carboxamide] | 3600 nM |
| O=C(Nc1cccc(-c2nncn2C2CC2)n1)c1cc(-c2ccc(C3CC3)nc2)c(Cl)cc1F [Example 265, 4-chloro-N-(6-(4-cyclopropyl-4H-1,2,4-triazol-3-yl)pyridin-2-yl)-5-(6-cyclopropylpyridin-3-yl)-2-fluorobenzamide] | 27 nM |
| O=C(Nc1cccc(-c2nncn2C2CC2c2ccccc2)c1)c1cc(-c2ccc(C3CC3)nc2)ccn1 (centres unmarked) [Example 267, 6-cyclopropyl-N-(3-(4-(2-phenylcyclopropyl)-4H-1,2,4-triazol-3-yl)phenyl)-3,4′-bipyridine-2′-carboxamide] | 425 nM |
| O=C(Nc1cccc(-c2nncn2C2CC2)c1)c1cc(-c2nnc(C3CC3)s2)ccn1 [Example 270, 4-(5-cyclopropyl-1,3,4-thiadiazol-2-yl)-N-(3-(4-cyclopropyl-4H-1,2,4-triazol-3-yl)phenyl)picolinamide] | 107 nM |
| COc1ccc(-c2ccc(C3CC3)nc2)cc1C(=O)Nc1cccc(-c2nncn2C2CC2)c1 [Example 271, N-(3-(4-cyclopropyl-4H-1,2,4-triazol-3-yl)phenyl)-5-(6-cyclopropylpyridin-3-yl)-2-methoxybenzamide] | 24 nM |

These reach a lower IC50. Values come first.

| IC50 | SMILES |
| --- | --- |
| 23 nM | CC(C)[C@H](C)n1cnnc1-c1cccc(NC(=O)c2cc(-n3cnc(C4CC4)c3)ccn2)c1 [Example 264, (S)-4-(4-cyclopropyl-1H-imidazol-1-yl)-N-(3-(4-(3-methylbutan-2-yl)-4H-1,2,4-triazol-3-yl)phenyl)picolinamide] |
| 23 nM | O=C(Nc1cccc(-c2nncn2C2CC2)n1)c1cccc(-n2cc(C3CC3)nn2)c1 [Example 269, 3-(4-cyclopropyl-1H-1,2,3-triazol-1-yl)-N-(6-(4-cyclopropyl-4H-1,2,4-triazol-3-yl)pyridin-2-yl)benzamide] |
| 13 nM | O=C(Nc1cccc(-c2nncn2C2CC2)c1)c1cc(-c2ccc(CC3CC3)nc2)ccn1 [Example 268, N-(3-(4-cyclopropyl-4H-1,2,4-triazol-3-yl)phenyl)-6-(cyclopropylmethyl)-3,4′-bipyridine-2′-carboxamide] |
| 11 nM | COc1ccc(-n2cnc(C3CC3)c2)cc1C(=O)Nc1cccc(-c2nncn2C2CC2)c1 [Example 272, 5-(4-cyclopropyl-1H-imidazol-1-yl)-N-(3-(4-cyclopropyl-4H-1,2,4-triazol-3-yl)phenyl)-2-methoxybenzamide] |
| 8 nM | O=C(Nc1cccc(-c2nncn2C2CC2)n1)c1cncc(-c2ccc(C3CC3)nc2)c1 [Example 259, 6′-cyclopropyl-N-(6-(4-cyclopropyl-4H-1,2,4-triazol-3-yl)pyridin-2-yl)-3,3′-bipyridine-5-carboxamide] |
